The target of one experiment is Cathepsin D (Homo sapiens, UniProt P07339). The experiment is described as follows: Inhibitory activity against cathepsin D.
Experiment [1] has as its target T1, Plasmepsin II (Plasmodium falciparum, UniProt P46925). Description: In vitro inhibition of plasmepsin-2 from Plasmodium falciparum.
A further experiment concerns Plasmodium falciparum. The experiment is described as follows: Inhibitory activity against Plasmodium falciparum. The experiment is classed as functional, organism-based.
The target of experiment [2] is T1, Plasmepsin II. The experiment is described as follows: Inhibitory activity against plasmepsin-2 from Plasmodium falciparum.

T1 sequence (P46925 whole entry): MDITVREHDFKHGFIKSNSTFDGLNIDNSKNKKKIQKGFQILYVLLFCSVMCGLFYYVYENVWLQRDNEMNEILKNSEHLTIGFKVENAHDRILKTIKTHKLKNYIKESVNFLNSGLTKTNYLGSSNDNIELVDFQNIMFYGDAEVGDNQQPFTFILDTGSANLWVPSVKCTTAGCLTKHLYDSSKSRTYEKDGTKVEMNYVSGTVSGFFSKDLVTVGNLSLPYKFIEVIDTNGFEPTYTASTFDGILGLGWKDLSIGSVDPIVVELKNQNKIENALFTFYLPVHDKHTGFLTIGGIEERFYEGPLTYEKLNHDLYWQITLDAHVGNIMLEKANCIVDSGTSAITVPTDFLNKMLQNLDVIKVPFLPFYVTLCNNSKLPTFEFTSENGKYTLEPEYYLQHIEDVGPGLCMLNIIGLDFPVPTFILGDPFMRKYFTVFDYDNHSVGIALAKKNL
Chain of Cathepsin D (P07339 65-162 limits assumed): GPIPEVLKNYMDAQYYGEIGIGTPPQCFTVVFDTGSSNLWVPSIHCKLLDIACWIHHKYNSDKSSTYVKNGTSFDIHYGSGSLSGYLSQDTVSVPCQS
Chain of Cathepsin D (P07339 169-412 limits assumed): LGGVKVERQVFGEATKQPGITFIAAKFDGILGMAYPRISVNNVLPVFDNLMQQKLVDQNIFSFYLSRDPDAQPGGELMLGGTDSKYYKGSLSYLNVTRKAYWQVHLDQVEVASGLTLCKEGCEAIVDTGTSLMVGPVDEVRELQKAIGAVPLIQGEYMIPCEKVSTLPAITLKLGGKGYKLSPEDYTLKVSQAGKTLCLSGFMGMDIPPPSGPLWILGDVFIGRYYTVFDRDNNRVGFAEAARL

Broadly, the Ki is the equilibrium dissociation constant of an inhibitor or competing ligand from its target. A lower Ki goes with a stronger hold on the target. As to `CCCCNC(=O)CC(O)C(Cc1ccccc1)NC(=O)[C@H](CCC(N)=O)NC(=O)COc1ccc2ccccc2c1` (some centres not stated), the values for the Ki at Cathepsin D and at Plasmepsin II [1] were 200 nM and greater than 30000 nM, respectively.

Consider `CCCCNC(=O)CC(O)C(Cc1ccccc1)NC(=O)[C@@H](NC(=O)c1ccc(OC)cc1OC)c1ccccc1` (stereo in doubt; form 1), for which the Ki at Cathepsin D was 2100 nM; on Plasmepsin II [1] it was 590 nM.

The IC50 is the concentration that inhibits the measured activity by half. The low end stands for greater potency, the high end for weaker potency. Consider `CCCCNC(=O)CC(O)C(Cc1ccccc1)NC(=O)[C@@H](NC(=O)COc1ccc2ccccc2c1)[C@@H](C)CC` (some centres not stated), for which the IC50 is 500 nM at Cathepsin D and roughly 10 µM in the experiment on Plasmodium falciparum. The molecule further displayed a Ki on Plasmepsin II [1] of 110 nM.

For the molecule `CCCCNC(=O)CC(O)C(Cc1ccccc1)NC(=O)[C@@H](NC(=O)CN1CCC(C(N)=O)(c2ccccc2)CC1)[C@@H](C)CC` (some centres not stated), the half-inhibitory concentration (IC50) at Cathepsin D is 5500 nM; with Plasmodium falciparum, roughly 20 µM. This molecule returned a Ki on Plasmepsin II [1] of 410 nM.

With `CC[C@H](C)[C@H](NC(=O)CN1CCC(C(N)=O)(c2ccccc2)CC1)C(=O)NC(Cc1ccccc1)C(O)CC(=O)NCCCc1ccccc1` (some centres not stated), the values for the Ki at Cathepsin D and on Plasmepsin II [1] were 3900 nM and 600 nM, respectively.

Take `CCCCNC(=O)CC(O)C(CC(C)C)NC(=O)[C@@H](NC(=O)Cc1ccc2ccccc2c1)[C@@H](C)CC` (some centres not stated): the values for the Ki on Cathepsin D and on Plasmepsin II [2] were 320 nM and 50 nM, respectively.

For `CCC(C)C(NC(=O)c1ccc(CNC)cc1)C(=O)NC(CC(C)C)C(O)CC(=O)NCCCc1ccccc1` (configuration not stated), the values for the Ki at Cathepsin D and on Plasmepsin II [1] were 1300 nM and 440 nM, respectively.

Regarding `CCCCNC(=O)CC(O)C(Cc1ccccc1)NC(=O)[C@@H](NC(=O)c1ccc(OC)cc1OC)c1ccccc1` (stereo in doubt; form 2), the Ki on Cathepsin D is 6200 nM; at Plasmepsin II [1] it was greater than 30000 nM.

For `CCCCNC(=O)CC(O)C(CC(C)C)NC(=O)[C@H](CC(C)C)NC(=O)COc1ccc2ccccc2c1` (some centres not stated), the inhibition constant Ki on Cathepsin D is 920 nM; on Plasmepsin II [1] it was 5600 nM.

On to `CCCCNC(=O)CC(O)C(Cc1ccccc1)NC(=O)[C@@H](NC(=O)c1ccc(OC)cc1OC)C(C)C` (some centres not stated), for which the inhibition constant Ki on Cathepsin D stood at 1600 nM; on Plasmepsin II [1] it was 500 nM.

In the case of `CCCCNC(=O)CC(O)C(Cc1ccccc1)NC(=O)[C@H](NC(=O)COc1ccc2ccccc2c1)c1ccccc1` (some centres not stated), the figures for the Ki on Cathepsin D and at Plasmepsin II [1] were 700 nM and 15000 nM, respectively.

With `CCCCNC(=O)CC(O)C(CC(C)C)NC(=O)[C@H](Cc1ccccc1)NC(=O)COc1ccc2ccccc2c1` (some centres not stated), the Ki on Cathepsin D was found to be 1300 nM; at Plasmepsin II [1], 12000 nM.

With `CCCCNC(=O)CC(O)C(Cc1ccccc1)NC(=O)[C@@H](NC(=O)COc1ccc2ccccc2c1)c1ccccc1` (some centres not stated), the Ki at Cathepsin D turned out to be 200 nM; at Plasmepsin II [1], 560 nM.

Turning to `CCCCNC(=O)CC(O)C(Cc1ccccc1)NC(=O)[C@@H](NC(=O)c1ccc(OC)cc1OC)[C@@H](C)CC` (some centres not stated), the inhibition constant Ki on Cathepsin D was 2400 nM; on Plasmepsin II [1], 220 nM.

As for `CCCCNC(=O)CC(O)C(CC(C)C)NC(=O)[C@@H](NC(=O)COc1ccc2ccccc2c1)c1ccccc1` (some centres not stated), the Ki at Cathepsin D was determined as 110 nM; on Plasmepsin II [1], 5800 nM.

With `CCCCNC(=O)CC(O)C(Cc1ccccc1)NC(=O)[C@@H](NC(=O)Cc1ccc2ccccc2c1)[C@@H](C)CC` (some centres not stated), the Ki at Cathepsin D was 50 nM; on Plasmepsin II [1] it was 90 nM.

On to `CCCCNC(=O)CC(O)C(Cc1ccccc1)NC(=O)[C@@H](NC(=O)c1ccc(CN2CCCC2)cc1)[C@@H](C)CC` (some centres not stated), for which the half-maximal inhibitory concentration (IC50) on Cathepsin D was 1200 nM; in the experiment on Plasmodium falciparum, roughly 10 µM. In addition, affinity on Plasmepsin II [1] was put at a Ki of 220 nM.

These data come from ChEMBL document CHEMBL1131370, “Identification of potent inhibitors of Plasmodium falciparum plasmepsin II from an encoded statine combinatorial library” (Bioorg Med Chem Lett, 1998).
